What was measured:
[1] = test system: C. difficile carbon sources; assay: Carbon source utilization, 87 carbon sources in three base media, OD600 and acid production (Example 3B); format: cell-based; parameters: key: “+” and “w” refer to “positive” and “weak” utilization of the carbon source, respectively; “+” and “w” refer to “positive” and “weak” utilization of the carbon source, respectively; details: for utilization of carbon source NAG: NAG (N-acetylglucosamine)
Description: Three C. difficile strains and 12 non-C. difficile bacterial strains were profiled using a panel of carbon sources. As used herein, unless otherwise indicated, carbon sources includes all sources tested as growth substrates in the experiments herein. The three C. difficile strains were Clostridium difficile ATCC 9689, Clostridium difficile ATCC 43593, and Clostridium difficile ATCC 43255, all of which are available from the American Type Culture Collection (ATCC).
Growth of the strains was tested on 87 different carbon sources in a 96-well plate format. The panel contained 34 carbon sources reported to be utilized by C. difficile in the literature (Hafiz and Oakley. 1976 J Med Microbiol 9:129-36; Wilson and Perini. 1988 Infection and Immunity 56:2610-14; Bergey and Holt. Bergey's Manual of Determinative Bacteriology. Baltimore: Williams & Wilkins, 1994; Sebaihia et al. 2006 Nature Genetics 38:779-786) including amino acids, mono-, di-, tri- and polysaccharides, glucoside and sugar alcohols. Carbon sources were added at 0.5% into three different base media (Base medium 1 SSNC composition: beef extract 1 g/L, yeast extract 2 g/L, bacto soytone 6 g/L, NaCl 4 g/L, KH2PO4 5.44 g/L, MgSO4 2 mM, CaCl2 1 mM, MnCl2 0.1 mM, cysteine hydrochloride 0.25 g/L, hemin 10 mg/L, menadione 1 mg/L, MOPS 6.3 g/L, pH 7; Base medium 2 SPOSCR composition: beef extract 1 g/L, yeast extract 2 g/L, bacto soytone 6 g/L, NaCl 4 g/L, KH2PO4 5.44 g/L, MgSO4 2 mM, CaCl2) 1 mM, MnCl2 0.1 mM, cysteine hydrochloride 0.25 g/L, hemin 10 mg/L, menadione 1 mg/L, MOPS 8.4 g/L, NaHCO3 0.4%, pH 7; Base medium 3 YCFA: casitone 10 g/L, yeast extract 2.5 g/L, cysteine hydrochloride 1 g/L, hemin 10 mg/L, ATCC vitamin solution 10 mL/L, ATCC trace element solution 10 mL/L, K2HPO4 0.45 g/L, KH2PO4 0.45 g/L, (NH4)2SO4 0.9 g/L, MgSO4×7H2O 90 mg/L, CaCl2) 90 mg/L, acetic acid 33 mM, propionic acid 9 mM, isobutyric acid 1 mM, isovaleric acid 1 mM, valeric acid 1 mM, pH 7).
Positive growth was scored by measuring optical density at 600 nm and comparing it to growth in base medium without an added carbon source. For two, base media acid production was also scored by measuring optical density at 558 nm of pH-indicator phenol red mixed with spent medium from each culture.

[2] = test system: HSDH activity (7-, 3- or 12-hydroxyl groups) on cholic, chenodeoxycholic, deoxycholic and lithocholic acid; assay: LC-MS screen for hydroxysteroid dehydrogenase (HSDH) activity; format: biochemical; details: LC-MS
[3] = test system: 7α-dehydroxylation of cholic acid and chenodeoxycholic acid; assay: LC-MS screen for 7α-dehydroxylation (7α-OH) activity; format: biochemical; details: LC-MS
[4] = SCFA profile of bacterial culture supernatants by GC-MS; details: for propionate production: GC-MS, fucose as carbon source
Description: The same bacterial culture supernatants used for HDAC inhibition assays described supra were submitted to GC-MS analysis to determine which SCFAs underlie the observed inhibition of HDAC. The method employed (MSOmics, Denmark) measures formate, acetate, propionate, butyrate, isobutyrate (2-methyl-propionate), isovalerate (3-methyl-butyrate), valerate (pentanoate), 4-methyl-pentanoate, caproate (hexanoate), and heptanoate. […] Numbers in Table 11 indicate detected SCFA concentration. B=butyrate; P=propionate; IB=isobutyrate, and IV=isovalerate.

[5] = test system: bile salt hydrolase (BSH) activity on conjugated bile acids; assay: LC-MS screen for bile salt hydrolase (BSH) activity; details: for BSH gCA: substrate gCA; for BSH gCDCA: substrate gCDCA; for BSH t-aMCA: substrate t-aMCA; for BSH t-bMCA: substrate t-bMCA; for BSH tCA: substrate tCA; for BSH tCDCA: substrate tCDCA
Description: To conduct the assay, briefly, bacteria were grown on permissive agar media plates for 24 to 48 hours to generate sufficient biomass to carry out assays. The bacterial lawns were resuspended in PBS to create a homogenous suspension that was then used for the BSH assay. To assay for BSH activity, bacterial suspensions were incubated with two separate mixtures of four distinct conjugated bile acids, each at concentration of 150 μg/ml, for 4 hours at 37° C. under anaerobic conditions. The reaction mixture was then extracted with an equal volume of acetonitrile, spun down to pellet bacteria and the supernatant filtered through a 0.2 μM filter to generate a sample for LC-MS analysis. Bile acids were determined using an Agilent 1260 HPLC coupled to a Bruker Compact qTOF MS. Samples were run on a bidentate C18 column using an acetonitrile:water buffer system to separate bile acids which were then ionized in negative mode and identified using a qTOF-MS. BSH activity was determined by the formation of deconjugated bile acid products that were verified by comparison to known standards and quantified, if necessary, using standard curves.

[6] = test system: HDAC enzymes (HeLa nuclear extract); assay: HDAC inhibition activity in supernatants of cultures grown in different carbon sources; details: 25% HDAC inhibition as cut off
Description: To determine whether the HDAC inhibition was affected by the type and level of carbon source available to a bacterial species, HDAC inhibition by supernatants derived from a selection of bacterial species used in DBCs was determined. In these experiments, bacteria were grown in a variety of carbon sources including mono-, di-, polysaccharides, and porcine mucine. Briefly, 600 μL bacterial cultures in peptone/yeast extract medium (PY) supplemented with 0.5% of the selected carbon sources were inoculated in 96 deep well plates, grown for 4 days, then the microbial cells were pelleted by centrifugation, and 15 μL of the culture medium (supernatant) was used for the HDAC assay with HeLa nuclear extract as described above. Because HDAC activity is reduced at low pH (Latham et al. 2012 Nucl Acid Res 40:4794-803) and the microbial cultures had pH as low as 5, to ensure that the final pH of the assay was not reduced by the addition of supernatant, 10 μL of a 1M Tris pH 8 solution was added per well to bring the final Tris buffer concentration to 75 mM. Thus, assays were performed with 15 μL supernatant, 10 μL 1M Tris pH 8, 25 μL of assay buffer and 50 μL of diluted HeLa nuclear extract, which were preincubated for 30 minutes prior to the addition of developing reagent. Luminescence was measured after 30 minutes.

[7] = test system: bile salt hydrolase (BSH) activity on conjugated bile acids (gCA, tCA, gCDCA, tCDCA); assay: Bile salt hydrolase (BSH) activity screen using TLC; format: biochemical

Clostridium bolteae
utilization of carbon source Citrus pectin [1]: +
utilization of carbon source NAG [1]: +
utilization of carbon source cysteine [1]: w
utilization of carbon source fructose [1]: +
utilization of carbon source glucose [1]: +
utilization of carbon source mannose [1]: +
utilization of carbon source melezitose ([1]; melezitose): +
utilization of carbon source oxalate [1]: +
utilization of carbon source propanediol [1]: +
utilization of carbon source rhamnose ([1]; rhamnose): +
utilization of carbon source ribose [1]: +
utilization of carbon source serine [1]: w
utilization of carbon source sialic acid [1]: +
utilization of carbon source sucrose [1]: +
utilization of carbon source trehalose [1]: +
utilization of carbon source tryptophan [1]: w
utilization of carbon source xylose ([1]; xylose): +
HSDH 3a [2]: + (‘+’ indicates greater than 50-fold increase in levels of product bile acid, suggesting strong activity)
HSDH 7a [2]: −
HSDH 12a [2]: −
7a Dehydrox CA ([3]; substrate CA): −
7a Dehydrox CDCA ([3]; substrate CDCA): −
propionate production [4]: produced propionate but only when supplied with fucose as a carbon source
BSH gCA [5]: + (‘+’ indicates greater than 50-fold increase in levels of product bile acid, suggesting strong activity)
BSH gCDCA [5]: + (‘+’ indicates greater than 50-fold increase in levels of product bile acid, suggesting strong activity)
BSH t-aMCA [5]: + (‘+’ indicates greater than 50-fold increase in levels of product bile acid, suggesting strong activity)
BSH t-bMCA [5]: + (‘+’ indicates greater than 50-fold increase in levels of product bile acid, suggesting strong activity)
BSH tCA [5]: + (‘+’ indicates greater than 50-fold increase in levels of product bile acid, suggesting strong activity)
BSH tCDCA [5]: + (‘+’ indicates greater than 50-fold increase in levels of product bile acid, suggesting strong activity)
HDAC inhibition when alternative nutrient sources are tested [6]: positive

Clostridium disporicum
utilization of carbon source Apple pectin ([1]; Apple pectin): w
utilization of carbon source Citrus pectin [1]: +
utilization of carbon source NAG [1]: +
utilization of carbon source arbutin ([1]; arbutin): +
utilization of carbon source cellobiose ([1]; cellobiose): +
utilization of carbon source cyclodextrin ([1]; cyclodextrin): +
utilization of carbon source cysteine [1]: w
utilization of carbon source esculin ([1]; esculin): +
utilization of carbon source fructose [1]: +
utilization of carbon source glucose [1]: +
utilization of carbon source glutamine ([1]; glutamine): w
utilization of carbon source glycogen [1]: +
utilization of carbon source mannose [1]: +
utilization of carbon source oxalate [1]: w
utilization of carbon source salicin ([1]; salicin): +
utilization of carbon source serine [1]: w
utilization of carbon source starch ([1]; starch): +
utilization of carbon source sucrose [1]: +
utilization of carbon source threonine [1]: w
utilization of carbon source trehalose [1]: +
HSDH 3a [2]: −
HSDH 7a [2]: + (‘+’ indicates greater than 50-fold increase in levels of product bile acid, suggesting strong activity)
HSDH 12a [2]: +/− (‘+/−’ indicates ≤50-fold change in product bile acid levels, suggesting weak activity)
HSDH 3a ([2]; 3a-HSDH): −
HSDH 7a ([2]; 7a-HSDH): + (‘+’ indicates greater than 50-fold increase in levels of product bile acid, suggesting strong activity)
HSDH 12a ([2]; 12a-HSDH): −
7a Dehydrox CA ([3]; substrate CA): −
7a Dehydrox CDCA ([3]; substrate CDCA): −
7a Dehydrox CDCA ([3]; substrate chenodeoxycholic acid): −
7a Dehydrox CA ([3]; substrate cholic acid): −
propionate production [4]: produced propionate but only when supplied with fucose as a carbon source
BSH gCA [5]: −
BSH gCDCA [5]: +/− (‘+/−’ indicates ≤50-fold change in product bile acid levels, suggesting weak activity)
BSH t-aMCA [5]: + (‘+’ indicates greater than 50-fold increase in levels of product bile acid, suggesting strong activity)
BSH t-bMCA [5]: + (‘+’ indicates greater than 50-fold increase in levels of product bile acid, suggesting strong activity)
BSH tCA [5]: +/− (‘+/−’ indicates ≤50-fold change in product bile acid levels, suggesting weak activity)
BSH tCDCA [5]: + (‘+’ indicates greater than 50-fold increase in levels of product bile acid, suggesting strong activity)
HDAC inhibition when alternative nutrient sources are tested [6]: positive

Clostridium glycolicum
utilization of carbon source Citrus pectin [1]: +
utilization of carbon source NAG [1]: +
utilization of carbon source alanine ([1]; alanine): w
utilization of carbon source arginie ([1]; arginie): w
utilization of carbon source aspartic acid ([1]; aspartic acid): +
utilization of carbon source formate ([1]; formate): +
utilization of carbon source fructose [1]: +
utilization of carbon source glucose [1]: +
utilization of carbon source glycogen [1]: w
utilization of carbon source guar ([1]; guar): w
utilization of carbon source isoleucine ([1]; isoleucine): +
utilization of carbon source leucine ([1]; leucine): +
utilization of carbon source ornithine ([1]; ornithine): w
utilization of carbon source polygalacturonate ([1]; polygalacturonate): +
utilization of carbon source propanediol [1]: w
utilization of carbon source ribose [1]: +
utilization of carbon source serine [1]: +
utilization of carbon source sialic acid [1]: w
utilization of carbon source threonine [1]: +
utilization of carbon source tryptophan [1]: +
utilization of carbon source valine ([1]; valine): +
utilization of carbon source α-ketoglutarate ([1]; α-ketoglutarate): +
BSH activity on gCDCA by TLC [7]: no BSH activity
HSDH 3a [2]: + (‘+’ indicates greater than 50-fold increase in levels of product bile acid, suggesting strong activity)
HSDH 7a [2]: + (‘+’ indicates greater than 50-fold increase in levels of product bile acid, suggesting strong activity)
HSDH 12a [2]: −
7a Dehydrox CA ([3]; substrate CA): −
7a Dehydrox CDCA ([3]; substrate CDCA): −
SCFAs produced ([4]; GC-MS of culture supernatants): produced isovalerate, isobutyrate and propionate
indole test (12 strains, eight carbon sources): positive
colour of culture in indole test (F. plautii: each of the 8 carbon sources, C. glycolicum: all C-sources except glucose, pectin, FOS/inulin): turned red
BSH gCA [5]: + (‘+’ indicates greater than 50-fold increase in levels of product bile acid, suggesting strong activity)
BSH gCDCA [5]: + (‘+’ indicates greater than 50-fold increase in levels of product bile acid, suggesting strong activity)
BSH t-aMCA [5]: + (‘+’ indicates greater than 50-fold increase in levels of product bile acid, suggesting strong activity)
BSH t-bMCA [5]: + (‘+’ indicates greater than 50-fold increase in levels of product bile acid, suggesting strong activity)
BSH tCA [5]: + (‘+’ indicates greater than 50-fold increase in levels of product bile acid, suggesting strong activity)
BSH tCDCA [5]: + (‘+’ indicates greater than 50-fold increase in levels of product bile acid, suggesting strong activity)
HDAC inhibition when alternative nutrient sources are tested [6]: positive

From US20240216444A1, “DESIGNED BACTERIAL COMPOSITIONS” (Seres Therapeutics, Inc., priority 2015, published 2024)
